Measurements reported in PubChem BioAssay (NCI).
“And” between values parts separate entries of the source, which are not always exact repeats. Equal values may be shown once.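 Results reflect a 48-hour exposure of cells in 96-well plates to compound at five concentrations. The concentration for 50% growth inhibition is given as GI50. TGI denotes the concentration required for complete inhibition of growth.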

What was measured:
Test in all cases: NCI anticancer screen, dose series, 48 h
MDA-MB-435 = test system: MDA-MB-435
HCT-116 colon = test system: HCT-116 colon
SF-539 CNS = test system: SF-539 CNS
RXF 393 renal = test system: RXF 393 renal
DMS 273 small cell lung = test system: DMS 273 small cell lung
SNB-78 CNS = test system: SNB-78 CNS
OVCAR-8 ovarian = test system: OVCAR-8 ovarian
SK-OV-3 ovarian = test system: SK-OV-3 ovarian
COLO 205 colon = test system: COLO 205 colon
SF-268 CNS = test system: SF-268 CNS

Structure (SMILES)	TGI (MDA-MB-435) [µM]	TGI (HCT-116 colon)	TGI (SF-539 CNS) [µM]	TGI (RXF 393 renal) [µM]	TGI (DMS 273 small cell lung) [µM]	TGI (SNB-78 CNS) [µM]	TGI (OVCAR-8 ovarian) [µM]	TGI (SK-OV-3 ovarian) [µM]	TGI (COLO 205 colon) [µM]	TGI (SF-268 CNS) [µM]	GI50 (HCT-116 colon)	GI50 (OVCAR-8 ovarian)	GI50 (SK-OV-3 ovarian)	GI50 (SF-268 CNS)
CC(C)(CN1CCCCC1)C(=O)/C=C/c1ccc(/C=C/C(=O)C(C)(C)CN2CCCCC2)cc1	0.984	1.1 µM	1.55	0.745	1.23	7.17	3.57	2.91	0.418	1.71				
COc1cc2c(cc1OC)[C@@H](Nc1ccc(C#N)cc1)C1COC(=O)[C@@H]1C2c1cc(OC)c(O)c(OC)c1 (some centres undefined)	> 100	25.8 µM and > 100 µM	0.856	35.9	1.9	95			15.6		6.81 µM and 3.23 µM	0.472 µM and 1.55 µM	0.195 µM and 0.548 µM	0.342 µM and 0.663 µM
CN(CCN1C(=O)c2cc([N+](=O)[O-])cc3cc([N+](=O)[O-])cc(c23)C1=O)CCN1C(=O)c2cc([N+](=O)[O-])cc3cc([N+](=O)[O-])cc(c23)C1=O		9.18 µM	> 58.8	1.04	18.4	5.91	29.6	> 71.5	14	> 100				
CN1C(=O)CCC1(O)C1C=CC=CC1 (centres undefined)		> 100 µM	> 100	> 100	> 100	> 100	> 100	> 100	> 100	> 100				
